In ChEMBL document CHEMBL3886212, “Disubstituted 3,4-diamino-3-cyclobutene-1,2-dione compounds for use in the treatment of chemokine-mediated diseases” (2015):

How the values were obtained:
[1] = target: T1, C-X-C chemokine receptor type 1 (Homo sapiens, UniProt P25024); experiment: (§1) Assay Drug Dev Technol. 2007 February; 5(1); 137-44).; type: cell-based
T1 sequence (P25024 whole entry): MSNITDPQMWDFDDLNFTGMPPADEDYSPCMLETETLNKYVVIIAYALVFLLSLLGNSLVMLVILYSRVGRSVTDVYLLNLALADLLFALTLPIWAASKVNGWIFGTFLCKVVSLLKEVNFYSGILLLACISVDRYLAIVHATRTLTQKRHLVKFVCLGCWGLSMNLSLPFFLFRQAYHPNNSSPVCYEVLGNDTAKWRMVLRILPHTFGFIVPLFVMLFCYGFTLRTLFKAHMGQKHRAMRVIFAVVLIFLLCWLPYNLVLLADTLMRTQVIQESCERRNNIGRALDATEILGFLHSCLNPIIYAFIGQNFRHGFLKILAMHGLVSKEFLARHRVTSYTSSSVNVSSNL

[2] = target: T2, C-X-C chemokine receptor type 2 (Homo sapiens, UniProt P25025); experiment: as §1; type: cell-based
T2 sequence (P25025 whole entry): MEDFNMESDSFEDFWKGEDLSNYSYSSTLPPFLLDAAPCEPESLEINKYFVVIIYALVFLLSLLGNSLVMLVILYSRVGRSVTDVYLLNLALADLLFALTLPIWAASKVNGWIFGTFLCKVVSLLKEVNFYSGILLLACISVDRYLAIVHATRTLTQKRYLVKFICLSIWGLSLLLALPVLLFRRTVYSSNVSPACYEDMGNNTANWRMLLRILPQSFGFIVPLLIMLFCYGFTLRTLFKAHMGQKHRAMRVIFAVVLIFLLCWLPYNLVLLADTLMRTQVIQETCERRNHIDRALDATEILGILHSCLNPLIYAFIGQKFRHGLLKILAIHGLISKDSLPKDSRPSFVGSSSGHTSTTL

`Cc1ccc(C(Nc2c(Nc3cccc(C(=O)N(C)C)c3O)c(=O)c2=O)C2(C)CCOCC2)o1` (configuration not stated) was tested, and the IC50 [1] was 3.35 µM and the IC50 [2] was 0.157 µM.
